Measured values reported in patent EP0047620A1, “Aryl diazabicyclyl amides, a process for their preparation and use” (BEECHAM GROUP PLC, priority 1980, dated 1982).

Columns and labels:
rat = assay: Increase in intragastric pressure in the rat; assay type: in vivo; details: conscious restrained rats, subcutaneous administration, increase in intragastric pressure over 40 minute period after dosing
Experimental: Intragastric pressure changes were recorded from previously starved conscious but retrained rats using a saline filled catheter inserted into the lumen of the stomach via a permanent gastric fistula. The catheter was connected to a physiological pressure transducer and pressure changes recorded on a hot wire pen recorder. In each animal a pre-dose period of 40 minutes was allowed to obtain a measure of spontaneous activity. An index of activity was obtained by measuring the average height of pressure waves during 10 minute periods. Values for 4 such periods were obtained during assessment of spontaneous activity and for the 40 minute period after the subcutaneous administration of the compounds. Students 't' test was applied to the difference in average values obtained for spontaneous and post-compound activity.

mouse = assay: Inhibition of apomorphine induced climbing in the mouse; assay type: in vivo; details: sc, apomorphine 1 mg/kg s.c., compounds given subcutaneously, climbing scored at 10, 20 and 30 minutes, I + number = inactive at that dose
Experimental: The test is based on that described by Protais, P., Constantin, J. and Schwartz, J.C.
Apomorphine 1 mg/kg s.c. induces mice to climb the wall of a wire cage (inverted food hopper - 11 x 7.5 x 18 cm high). Mice acclimatised in their home cages in groups of 5 are placed under the hoppers immediately after the injection of apomorphine 1 mg/kg s.c. At 10, 20 and 30 minutes after injection climbing behaviour is scored. The mice are observed for 30 seconds and scored according to the position in which they spend the majority of time, score O - four paws on floor of cage; score 1 - fore paws only on walls; score 2 - all paws on wall of cage. The scores at all 3 times and for each mouse are summed and mice drug treated subcutaneously compared to mice receiving apomorphine only.
Compounds were also tested for their ability to inhibit apomorphine induced climbing in the mouse.

Compound	minimal effective dose (rat; Rattus norvegicus, sc, 40 min, read-out: Dose mg/kg Subcutaneously (minimum dose for activity))	ED50 (mouse)	Dose mg/kg Subcutaneously (minimum dose for activity) (rat)
COc1cc(N)c(Cl)cc1C(=O)NC1CCN2CCCCN2C1 (racemic) [Example 2, (±) 4-Amino-5-chloro-2-methoxy-N-(3-{1,6-diazabicyclo [4,4,0]decyl}) benzamide]	1 mg/kg	110 mg/kg	
COc1cc(N)c(Cl)cc1C(=O)NC1CN2CCC(c3ccccc3)CN2C1 (centres unmarked) [Example 8, 4-Amino-5-chloro-2-methoxy-N-(3-{7-phenyl-1,5-diaza-bicyclo[4,3,0]nonyl})benzamide]		4.5 mg/kg	
(±) 4-Amino-5-chloro-2-methoxy-N-(7 or 8- {2-methyl-1,5-diazabicyclo[4,3,0]nonyl})benzamide [Example 14]			0.5 mg/kg
(±) 4-Amino-5-chloro-2-methoxy-N-(7 or 8-{2- methyl-1,5-diazabicyclo[4,3,0]nonyl})benzamide [Example 15]			1.0 mg/kg
